Species on record: Rattus norvegicus
Assay: DrugMatrix - Regimen: Daily Repeat
Type: toxicity, organism-based, Sprague-Dawley
Set-up: regimen Daily Repeat, gender Male, age 6-8 weeks
Conditions: in vivo, po, route oral GAVAGE, […]; for ABSOLUTE BASOPHIL / ABSOLUTE EOSINOPHIL / ABSOLUTE LYMPHOCYTE / ABSOLUTE MONOCYTE / ABSOLUTE SEGMENTED NEUTROPHIL / BASOPHIL / EOSINOPHIL / ERYTHROCYTE COUNT / HEMATOCRIT / HEMOGLOBIN / LEUKOCYTE COUNT / LYMPHOCYTE / MEAN CORPUSCULAR HEMOGLOBIN / MEAN CORPUSCULAR HEMOGLOBIN CONCENTRATION / MEAN CORPUSCULAR VOLUME / MONOCYTE / NEUTROPHIL / NUCLEATED RED BLOOD CELLS / PLATELET COUNT: tissue Blood; for ALANINE AMINOTRANSFERASE / ALBUMIN / ALKALINE PHOSPHATASE / ASPARTATE AMINOTRANSFERASE / BLOOD UREA NITROGEN / CARBON DIOXIDE / CHLORIDE / CHOLESTEROL / CREATINE PHOSPHOKINASE / CREATININE / GLUCOSE / LACTATE DEHYDROGENASE / LIPASE / PHOSPHORUS / POTASSIUM / SODIUM / TOTAL BILIRUBIN / TOTAL PROTEIN / URIC ACID: tissue Plasma
[1] = 1 mg/kg, 120 h, dose level Low, time 5 day
[2] = 14 mg/kg, 72 h, dose level High, time 3 day
[3] = 14 mg/kg, 120 h, dose level High, time 5 day

With `CCOC(=O)C1=C(C)NC(C)=C(C(=O)OCC)C1c1ccccc1/C=C/C(=O)OC(C)(C)C` [LACIDIPINE] the “ABSOLUTE BASOPHIL” value [1] was 0 CELLS/uL, the “ABSOLUTE EOSINOPHIL” value [1] was 0 CELLS/uL and the “ABSOLUTE LYMPHOCYTE” value [1] was 13674 CELLS/uL. The “ABSOLUTE MONOCYTE” value [1] was 253 CELLS/uL, the “ABSOLUTE SEGMENTED NEUTROPHIL” value [1] was 1206.33 CELLS/uL and the BASOPHIL [1] was 0%. The EOSINOPHIL [1] was 0%, the “ERYTHROCYTE COUNT” value [1] was 6.05 x10E6/uL and the HEMATOCRIT [1] was 38.43%. The HEMOGLOBIN [1] was 15 G/DL, the “LEUKOCYTE COUNT” value [1] was 15.13 x10E3/uL and the LYMPHOCYTE [1] was 90.33%. For the same compound, the “MEAN CORPUSCULAR HEMOGLOBIN” value [1] was 24.8 pg, the “MEAN CORPUSCULAR HEMOGLOBIN CONCENTRATION” value [1] was 39.07 G/DL and the “MEAN CORPUSCULAR VOLUME” value [1] was 63.47 fL. For the same compound, the MONOCYTE [1] was 1.67%, the NEUTROPHIL [1] was 8% and the “NUCLEATED RED BLOOD CELLS” value [1] was 0.33 /100WBC. For the same compound, the “PLATELET COUNT” value [1] was 1182 x10E3/uL, the “ALANINE AMINOTRANSFERASE” value [1] was 60.33 u/L and the ALBUMIN [1] was 4.13 G/DL. For the same compound, the “ALKALINE PHOSPHATASE” value [1] was 378.33 u/L, the “ASPARTATE AMINOTRANSFERASE” value [1] was 70.67 u/L and the “BLOOD UREA NITROGEN” value [1] was 12.67 mg/dL. The “CARBON DIOXIDE” value [1] was 30 mmol/L, the CHLORIDE [1] was 99.67 MEQ/L and the CHOLESTEROL [1] was 69 mg/dL. For the same compound, the “CREATINE PHOSPHOKINASE” value [1] was 271.67 u/L, the CREATININE [1] was 0.17 mg/dL and the GLUCOSE [1] was 166.33 mg/dL. For the same compound, the “LACTATE DEHYDROGENASE” value [1] was 125.67 u/L, the LIPASE [1] was 10 u/L and the PHOSPHORUS [1] was 10.93 mg/dL. For the same compound, the POTASSIUM [1] was 6.75 MEQ/L, the SODIUM [1] was 141.97 MEQ/L and the “TOTAL BILIRUBIN” value [1] was 0.17 mg/dL. The “TOTAL PROTEIN” value [1] was 5.83 G/DL, the “URIC ACID” value [1] was 1.9 mg/dL and the “ABSOLUTE BASOPHIL” value [2] was 0 CELLS/uL. For the same compound, the “ABSOLUTE EOSINOPHIL” value [2] was 0 CELLS/uL, the “ABSOLUTE LYMPHOCYTE” value [2] was 6598.33 CELLS/uL and the “ABSOLUTE MONOCYTE” value [2] was 95.33 CELLS/uL. The “ABSOLUTE SEGMENTED NEUTROPHIL” value [2] was 673 CELLS/uL, the BASOPHIL [2] was 0% and the EOSINOPHIL [2] was 0%. For the same compound, the “ERYTHROCYTE COUNT” value [2] was 6.39 x10E6/uL, the HEMATOCRIT [2] was 38.67% and the HEMOGLOBIN [2] was 15.2 G/DL. For the same compound, the “LEUKOCYTE COUNT” value [2] was 7.37 x10E3/uL, the LYMPHOCYTE [2] was 89.67% and the “MEAN CORPUSCULAR HEMOGLOBIN” value [2] was 23.8 pg. For the same compound, the “MEAN CORPUSCULAR HEMOGLOBIN CONCENTRATION” value [2] was 39.33 G/DL, the “MEAN CORPUSCULAR VOLUME” value [2] was 60.53 fL and the MONOCYTE [2] was 1.33%. The NEUTROPHIL [2] was 9%, the “NUCLEATED RED BLOOD CELLS” value [2] was 0.33 /100WBC and the “PLATELET COUNT” value [2] was 1020.33 x10E3/uL. For the same compound, the “ALANINE AMINOTRANSFERASE” value [2] was 81.67 u/L, the ALBUMIN [2] was 4 G/DL and the “ALKALINE PHOSPHATASE” value [2] was 315.33 u/L. For the same compound, the “ASPARTATE AMINOTRANSFERASE” value [2] was 94 u/L, the “BLOOD UREA NITROGEN” value [2] was 9.33 mg/dL and the “CARBON DIOXIDE” value [2] was 25 mmol/L. For the same compound, the CHLORIDE [2] was 94.33 MEQ/L, the CHOLESTEROL [2] was 62.33 mg/dL and the “CREATINE PHOSPHOKINASE” value [2] was 287 u/L. The CREATININE [2] was 0.4 mg/dL, the GLUCOSE [2] was 140 mg/dL and the “LACTATE DEHYDROGENASE” value [2] was 223.33 u/L. For the same compound, the LIPASE [2] was 9.67 u/L, the PHOSPHORUS [2] was 8.63 mg/dL and the POTASSIUM [2] was 4.28 MEQ/L. For the same compound, the SODIUM [2] was 137.47 MEQ/L, the “TOTAL BILIRUBIN” value [2] was 0.2 mg/dL and the “TOTAL PROTEIN” value [2] was 5.47 G/DL. The “URIC ACID” value [2] was 0.53 mg/dL, the “ABSOLUTE BASOPHIL” value [3] was 0 CELLS/uL and the “ABSOLUTE EOSINOPHIL” value [3] was 59.67 CELLS/uL. For the same compound, the “ABSOLUTE LYMPHOCYTE” value [3] was 14336 CELLS/uL, the “ABSOLUTE MONOCYTE” value [3] was 190.33 CELLS/uL and the “ABSOLUTE SEGMENTED NEUTROPHIL” value [3] was 2280.67 CELLS/uL. For the same compound, the BASOPHIL [3] was 0%, the EOSINOPHIL [3] was 0.33% and the “ERYTHROCYTE COUNT” value [3] was 6.95 x10E6/uL. For the same compound, the HEMATOCRIT [3] was 41.6%, the HEMOGLOBIN [3] was 16.07 G/DL and the “LEUKOCYTE COUNT” value [3] was 16.87 x10E3/uL. For the same compound, the LYMPHOCYTE [3] was 85.33%, the “MEAN CORPUSCULAR HEMOGLOBIN” value [3] was 23.17 pg and the “MEAN CORPUSCULAR HEMOGLOBIN CONCENTRATION” value [3] was 38.67 G/DL. The “MEAN CORPUSCULAR VOLUME” value [3] was 59.9 fL, the MONOCYTE [3] was 1% and the NEUTROPHIL [3] was 13.33%. For the same compound, the “NUCLEATED RED BLOOD CELLS” value [3] was 0 /100WBC, the “PLATELET COUNT” value [3] was 1126 x10E3/uL and the “ALANINE AMINOTRANSFERASE” value [3] was 90.33 u/L. The ALBUMIN [3] was 4.47 G/DL, the “ALKALINE PHOSPHATASE” value [3] was 262.33 u/L and the “ASPARTATE AMINOTRANSFERASE” value [3] was 95.67 u/L. The “BLOOD UREA NITROGEN” value [3] was 10.33 mg/dL, the “CARBON DIOXIDE” value [3] was 25.33 mmol/L and the CHLORIDE [3] was 97.67 MEQ/L. The CHOLESTEROL [3] was 58.67 mg/dL, the “CREATINE PHOSPHOKINASE” value [3] was 234.67 u/L and the CREATININE [3] was 0.14 mg/dL. For the same compound, the GLUCOSE [3] was 154.67 mg/dL, the “LACTATE DEHYDROGENASE” value [3] was 217 u/L and the LIPASE [3] was 9.33 u/L. For the same compound, the PHOSPHORUS [3] was 11.23 mg/dL, the POTASSIUM [3] was 4.62 MEQ/L and the SODIUM [3] was 138.03 MEQ/L. For the same compound, the “TOTAL BILIRUBIN” value [3] was 0.33 mg/dL, the “TOTAL PROTEIN” value [3] was 5.93 G/DL and the “URIC ACID” value [3] was 1.6 mg/dL.

Reference: ChEMBL document CHEMBL3885881, “DrugMatrix”
